Where a name gives a salt, the structure may show the parent alone. Read-outs that look alike come from different tables or passages of the source. Values belong to the molecule of their own block, whether it stands above or below them.
Assays:
[1] = target: T1, CYP3A4 (Homo sapiens, UniProt P08684); test: P450-Glo CYP3A4 activity in HBV-infected HepaRG cells; format: cell-based; conditions: day 11 p.i.
T1 construct: CYP1A2, CYP2C9, and CYP3A4 activity were determined in HBV-infected HepaRG cells; endogenous in cells; host or cells: differentiated HepaRG cells infected with HBV
T1 sequence (P08684 whole entry): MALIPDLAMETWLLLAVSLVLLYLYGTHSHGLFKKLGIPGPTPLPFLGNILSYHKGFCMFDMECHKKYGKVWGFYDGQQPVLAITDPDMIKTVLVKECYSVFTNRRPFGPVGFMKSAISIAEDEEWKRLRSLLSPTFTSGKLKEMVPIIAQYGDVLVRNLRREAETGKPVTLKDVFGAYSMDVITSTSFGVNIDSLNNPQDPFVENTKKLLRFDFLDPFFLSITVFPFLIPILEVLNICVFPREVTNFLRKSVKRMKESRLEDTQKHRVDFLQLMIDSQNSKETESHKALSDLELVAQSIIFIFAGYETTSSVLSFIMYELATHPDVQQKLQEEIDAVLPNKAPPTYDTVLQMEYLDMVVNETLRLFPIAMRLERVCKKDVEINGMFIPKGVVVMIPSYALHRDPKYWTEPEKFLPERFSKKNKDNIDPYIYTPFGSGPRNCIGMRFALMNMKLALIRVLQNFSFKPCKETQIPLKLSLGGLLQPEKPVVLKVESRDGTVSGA

[2] = target: T2, CYP2C9 (Homo sapiens, UniProt P11712); test: P450-Glo CYP2C9 activity in HBV-infected HepaRG cells
T2 sequence (P11712 whole entry): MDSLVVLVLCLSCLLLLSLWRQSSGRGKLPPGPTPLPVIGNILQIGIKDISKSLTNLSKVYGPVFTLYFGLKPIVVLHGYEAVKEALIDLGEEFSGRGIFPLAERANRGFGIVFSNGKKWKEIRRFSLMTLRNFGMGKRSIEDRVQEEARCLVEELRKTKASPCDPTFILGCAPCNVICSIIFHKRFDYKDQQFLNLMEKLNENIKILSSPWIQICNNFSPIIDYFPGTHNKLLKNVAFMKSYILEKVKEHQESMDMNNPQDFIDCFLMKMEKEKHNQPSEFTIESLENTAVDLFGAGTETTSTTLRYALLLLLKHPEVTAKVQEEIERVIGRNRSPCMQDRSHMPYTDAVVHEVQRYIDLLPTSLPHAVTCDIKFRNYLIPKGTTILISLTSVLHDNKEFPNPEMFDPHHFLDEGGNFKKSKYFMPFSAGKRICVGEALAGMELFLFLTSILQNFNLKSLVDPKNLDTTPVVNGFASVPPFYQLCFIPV

[3] = target: T3, CYP1A2 (Homo sapiens, UniProt P05177); test: P450-Glo CYP1A2 activity in HBV-infected HepaRG cells; format: cell-based; conditions: day 11 p.i.
T3 construct: CYP1A2, CYP2C9, and CYP3A4 activity were determined in HBV-infected HepaRG cells; endogenous in cells; host or cells: differentiated HepaRG cells infected with HBV
T3 sequence (P05177 1-516): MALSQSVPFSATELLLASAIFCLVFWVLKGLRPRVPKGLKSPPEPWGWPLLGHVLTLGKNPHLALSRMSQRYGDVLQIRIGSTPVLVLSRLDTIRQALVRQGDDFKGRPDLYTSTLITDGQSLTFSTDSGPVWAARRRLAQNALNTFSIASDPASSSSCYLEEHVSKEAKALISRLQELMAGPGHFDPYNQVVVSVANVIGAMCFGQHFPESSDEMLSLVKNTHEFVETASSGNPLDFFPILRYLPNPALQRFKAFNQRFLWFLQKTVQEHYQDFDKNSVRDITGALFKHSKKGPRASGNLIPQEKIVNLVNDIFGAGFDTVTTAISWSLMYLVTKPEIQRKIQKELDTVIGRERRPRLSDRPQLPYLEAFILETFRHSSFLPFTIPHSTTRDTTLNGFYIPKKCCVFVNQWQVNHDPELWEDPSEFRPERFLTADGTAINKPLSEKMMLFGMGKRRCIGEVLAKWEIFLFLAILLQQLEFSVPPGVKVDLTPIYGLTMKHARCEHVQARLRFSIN

[4] = target: T2, CYP2C9
[5] = ABT 10 or 20 mM 1 h twice, or 0.1 or 0.2 mM twice for 3 days (days 5 and 8 p.i.)
[6] = SKF-525A 100 or 200 μM 1 h twice, or 2 or 20 μM twice for 3 days

- inhibition of CYP3A4 [1, 5]: > 90%
- inhibition of CYP2C9 ([2]; ABT 10 or 20 mM 1 h twice, or 0.1 or 0.2 mM twice for 3 days (days 5 and 8 p.i.), day 11 p.i.): 72%-75%
- inhibition of CYP1A2 [3, 5]: > 90%
SMILES: Nn1nnc2ccccc21 [ABT, 1-aminobenzotriazole]

- CYP3A4 inhibition relative to other CYPs [1, 6]: inhibited CYP3A4 better than CYP2C9
- CYP1A2 inhibition relative to other CYPs [3, 6]: inhibited CYP1A2 less
SMILES: CCCC(C(=O)OCCN(CC)CC)(c1ccccc1)c1ccccc1 [SKF-525A, proadifen hydrochloride]

SMILES: Cc1nc2c([nH]1)c(=O)n(C)c(=O)n2Cc1ccco1 [furafylline]
- CYP2C9 inhibition ([2]; furafylline alone, titration): also inhibit

SMILES: CC(=O)N1CCN(c2ccc(OCC3COC(Cn4ccnc4)(c4ccc(Cl)cc4Cl)O3)cc2)CC1 (stereo not shown) [ketoconazole]
- CYP2C9 inhibition [4]: also inhibit
